We go through four compounds from US6242462A, “Pharmacological agents” (Eli Lilly and Company, priority 2000, dated 2001).

The target of test [1] is T1, human GluR1 (Homo sapiens, UniProt P42261).
T1 construct: expressed in transfected cells; host or cells: HEK293
Nature of the test: Binding: displacement of 3H AMPA on GluR1-expressing cells (Table 1). An excerpt:
(§1) The selectivity of compounds acting at GluR5 receptors may be determined by measurement of activity at other AMPA and kainate receptors including receptor-ligand binding studies and whole-cell voltage clamp electro-physiological recordings of functional activity at human GluR1, GluR2, GluR3 and GluR4 receptors (Fletcher et al., 1995, Recept. Channels 3; 21-31), receptor-ligand binding studies and whole-cell voltage clamp electrophysiological recordings of functional activity at human GluR6 receptors (Hoo et al., Recept. Channels 2; 327-338) and whole-cell voltage clamp electrophysiological recordings of functional activity at AMPA receptors in acutely isolated cerebellar Purkinje neurons (Bleakman et al., 1996, Mol. Pharmacol. 49; 581-585) and other tissues expressing AMPA receptors (Fletcher and Lodge, 1996, Phannacol. Ther. 70; 65-89).
(§2) Cell lines (HEK293 cells) stably transfected with human GluR5 receptors were employed. Displacement of 3H AMPA by increasing concentrations of test compound was used on GluR1-4-expressing cells and 3H kainate (KA) on GluR5 and expressing cells. Estimated activity (Ki) in nM was as follows.

In test [2] the target is T2, human GluR4 (Homo sapiens, UniProt P48058).
T2 construct: expressed in transfected cells; host or cells: HEK293
Nature of the test: Binding: displacement of 3H AMPA on GluR4-expressing cells (Table 1).
From the text: as §1, §2
In general terms: Displacement assays read how much labelled ligand stays bound in the presence of the test substance.

The target in test [3] is T1, human GluR1. In words: Patch-clamp electrophysiology, HEK293 cells stably transfected with human GluR1, vs 100 μM AMPA (Table 2). Format: cell-based.
From the text: as §1
(§3) Functional studies were carried out on HEK293 cells stably transfected with human GluR receptors and on acutely isolated dorsal root ganglion neurons (DRG) using patch-clamp technology (Bleakman et al., 1996, Mol. Pharmacol., 49, 581-585). IC50 values (μM) for test Compound A were estimated for GluR1-4 vs 100 μM AMPA and GluR5 and GluR6 vs 100 μM KA with the following results: […]

In test [4] the target is T3, human GluR2 (Homo sapiens, UniProt P42262).
T3 construct: expressed in transfected cells; host or cells: HEK293
Nature of the test: Patch-clamp electrophysiology, HEK293 cells stably transfected with human GluR2, vs 100 μM AMPA (Table 2). Format: cell-based.
From the text: as §1, §3
Background: In patch-clamp work, channel activity is measured electrically.

The target in test [5] is T2, human GluR4. Nature of the test: Patch-clamp electrophysiology, HEK293 cells stably transfected with human GluR4, vs 100 μM AMPA (Table 2). Format: cell-based.
From the text: as §1, §3

Test [6] concerns the target T4, human GluR5 (Homo sapiens, UniProt P39086). In words: Binding: displacement of 3H kainate on GluR5-expressing HEK293 cells (Table 1). Set-up: expressed in transfected cells; host or cells: HEK293. An excerpt: (§4) Cell lines (HEK293 cells) stably transfected with human GluR5 receptors were employed. Displacement of 3H AMPA by increasing concentrations of test compound was used on GluR1-4-expressing cells and 3H kainate (KA) on GluR5 and expressing cells.
Target sequence in this assay (P39086 31-905 isoform P39086-2 limits assumed): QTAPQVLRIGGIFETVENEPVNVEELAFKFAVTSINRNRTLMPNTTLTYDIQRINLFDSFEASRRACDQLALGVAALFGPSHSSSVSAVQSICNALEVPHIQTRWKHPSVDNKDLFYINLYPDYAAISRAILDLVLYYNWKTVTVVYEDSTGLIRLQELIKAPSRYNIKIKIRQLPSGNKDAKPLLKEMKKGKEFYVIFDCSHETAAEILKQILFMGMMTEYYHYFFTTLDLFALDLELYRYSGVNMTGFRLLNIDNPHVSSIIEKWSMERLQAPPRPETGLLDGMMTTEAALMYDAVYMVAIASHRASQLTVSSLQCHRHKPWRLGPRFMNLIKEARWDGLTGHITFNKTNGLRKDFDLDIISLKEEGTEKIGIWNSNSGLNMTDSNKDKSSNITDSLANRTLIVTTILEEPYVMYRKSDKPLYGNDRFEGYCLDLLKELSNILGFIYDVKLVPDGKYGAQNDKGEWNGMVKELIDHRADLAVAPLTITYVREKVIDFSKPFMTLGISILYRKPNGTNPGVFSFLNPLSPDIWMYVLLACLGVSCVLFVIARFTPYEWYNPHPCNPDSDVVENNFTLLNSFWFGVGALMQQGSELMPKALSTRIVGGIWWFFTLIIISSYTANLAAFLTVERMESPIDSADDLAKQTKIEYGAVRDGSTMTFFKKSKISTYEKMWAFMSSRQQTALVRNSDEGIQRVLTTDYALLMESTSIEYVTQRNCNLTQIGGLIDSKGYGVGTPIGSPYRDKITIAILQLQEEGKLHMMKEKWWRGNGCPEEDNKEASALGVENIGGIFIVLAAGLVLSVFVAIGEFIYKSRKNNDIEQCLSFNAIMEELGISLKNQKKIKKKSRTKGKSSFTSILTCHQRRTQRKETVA

In test [7] the target is T3, human GluR2. In words: Binding: displacement of 3H AMPA on GluR2-expressing cells (Table 1).
From the text: as §4

The target of test [8] is T5, human GluR6 (Homo sapiens, UniProt Q13002).
T5 construct: expressed in transfected cells; host or cells: HEK293
Nature of the test: Binding: displacement of radioligand (3H kainate) on GluR6 (Table 1). The conditions noted are these: read-out: % displ, GluR6.
From the text: as §1, §2

The target of test [9] is T6, human GluR3 (Homo sapiens, UniProt P42263).
T6 construct: expressed in transfected cells; host or cells: HEK293
In words: Patch-clamp electrophysiology, HEK293 cells stably transfected with human GluR3, vs 100 μM AMPA (Table 2). Format: cell-based.
From the text: as §1, §3

The target of test [10] is T6, human GluR3. In words: Binding: displacement of 3H AMPA on GluR3-expressing cells (Table 1).
From the text: as §1, §2

For test [11], the target named is T5, human GluR6. Nature of the test: Patch-clamp electrophysiology, HEK293 cells stably transfected with human GluR6, vs 100 μM KA (Table 2). Format: cell-based.
From the text: as §1, §3

Test [12] has as its target T4, human GluR5. Nature of the test: Patch-clamp electrophysiology, HEK293 cells stably transfected with human GluR5, vs 100 μM KA (Table 2). Format: cell-based. Set-up: expressed in transfected cells; host or cells: HEK293.
From the text: (§5) GluR5 receptor antagonists may be identified by radiolabelled ligand binding studies at the cloned and expressed human GluR5 receptor (Korczak et al., 1994, Recept. Channels 3; 41-49), by whole cell voltage clamp electro-physiological recordings of functional activity at the human GluR5 receptor (Korczak et al., 1994, Recept. Channels 3; 41-49) and by whole cell voltage clamp electro-physiological recordings of currents in acutely isolated rat dorsal root ganglion neurons (Bleakman et al., 1996, Mol. Pharmacol. 49; 581-585).
as §3
Target sequence in this assay (P39086 31-905 isoform P39086-2 limits assumed): as above

For test [13], the system named is acutely isolated dorsal root ganglion neurons (DRG). Nature of the test: Patch-clamp electrophysiology, kainate induced current in acutely isolated dorsal root ganglion neurons (Table 2). Format: cell-based. The conditions noted are these: Rattus norvegicus, DRG neuron, based on % inhibition of 30 μM kainate induced current.
From the text: as §5
Functional studies were carried out on HEK293 cells stably transfected with human GluR receptors and on acutely isolated dorsal root ganglion neurons (DRG) using patch-clamp technology (Bleakman et al., 1996, Mol. Pharmacol., 49, 581-585). IC50 values (μM) for test Compound A were estimated for GluR1-4 vs 100 μM AMPA and GluR5 and GluR6 vs 100 μM KA with the following results:
*Based on % inhibition of 30 μM kainate induced current.

Test [14] addresses T4, human GluR5. Nature of the test: Selectivity at GluR5 over other ionotropic glutamate receptors (binding and electrophysiology). The conditions noted are these: GluR5 vs other ionotropic glutamate receptors.
Target sequence in this assay (P39086 31-918): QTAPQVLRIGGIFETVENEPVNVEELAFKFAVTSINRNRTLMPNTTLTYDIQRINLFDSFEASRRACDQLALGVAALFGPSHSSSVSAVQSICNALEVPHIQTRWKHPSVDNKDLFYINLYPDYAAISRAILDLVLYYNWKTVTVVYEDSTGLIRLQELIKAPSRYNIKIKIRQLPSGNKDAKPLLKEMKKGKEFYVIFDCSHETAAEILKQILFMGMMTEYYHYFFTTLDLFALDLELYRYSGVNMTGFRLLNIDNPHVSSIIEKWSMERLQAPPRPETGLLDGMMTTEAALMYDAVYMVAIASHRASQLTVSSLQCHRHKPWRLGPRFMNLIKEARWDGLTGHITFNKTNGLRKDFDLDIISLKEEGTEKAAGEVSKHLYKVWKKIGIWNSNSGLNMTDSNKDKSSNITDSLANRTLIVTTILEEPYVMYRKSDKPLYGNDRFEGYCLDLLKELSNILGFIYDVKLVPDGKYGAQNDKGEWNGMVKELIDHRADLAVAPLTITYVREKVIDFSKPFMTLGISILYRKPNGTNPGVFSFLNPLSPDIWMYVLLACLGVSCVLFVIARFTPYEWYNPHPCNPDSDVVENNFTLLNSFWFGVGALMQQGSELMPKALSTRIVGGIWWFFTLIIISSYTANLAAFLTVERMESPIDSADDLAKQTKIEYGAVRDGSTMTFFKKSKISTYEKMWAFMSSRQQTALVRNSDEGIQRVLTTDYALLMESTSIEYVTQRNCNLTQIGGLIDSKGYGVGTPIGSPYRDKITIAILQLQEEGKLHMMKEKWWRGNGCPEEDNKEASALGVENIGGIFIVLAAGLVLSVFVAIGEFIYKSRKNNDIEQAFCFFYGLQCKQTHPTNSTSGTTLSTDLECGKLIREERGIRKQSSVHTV
The test system of test [15] is acetic acid induced writhing. Nature of the test: Acetic acid induced mouse writhing test. Format: in vivo, male CD-1 mice. The settings on record: mice; 1, 3, 10 and 30 mg/kg; 0.5% acetic acid i.p. The protocol: 3) Acetic acid induced mouse writhing test.
This test measures the ability of a test compound to reduce the amount of writhing induced by intraperitoneal injection of acetic acid in mice.
Doses of test compound or control are administered to male CD-1 mice. Each animal is then administered 0.5% acetic acid in a volume of […] intraperitoneally. The animals are then placed in individual plexiglas observation chambers and the total number of writhes (flattening of the abdominal wall and asymmetric stretching and extending of the body and hindlimbs) recorded between 5 and 10 minutes after acetic acid administration.

Test [16] deals with tail flick response. Nature of the test: Tail Flick Test in mice. The settings on record: subcutaneous, 3, 10, and 30 mg/kg. Format: in vivo. The method, then:
(§6) This well known test measures the effect of a test compound on the time taken for an animal to flick its tail out of a focused beam of light. In the test, a beam of light from a lamp is focused on a surface, and the lamp is then switched off. Treated and untreated (control) animals are restrained, with their tails positioned at the focal point of the beam of light from the lamp. The lamp is then switched on, and the time taken for the animal's tail to respond by moving is recorded.
A general note: Hot-plate and tail-flick tests time the reaction to a heat stimulus.

Test [17] has as its system pain. Nature of the test: Animal models of pain. The conditions noted are these: in vivo.
In test [18] the test system is tail flick response. In words: Tail Flick Test in cynomolgous primates. Format: in vivo. The settings on record: oral, 0.03, 0.1, 0.3 and 3 mg/kg. The protocol:
as §6

T1 sequence (P42261 19-906): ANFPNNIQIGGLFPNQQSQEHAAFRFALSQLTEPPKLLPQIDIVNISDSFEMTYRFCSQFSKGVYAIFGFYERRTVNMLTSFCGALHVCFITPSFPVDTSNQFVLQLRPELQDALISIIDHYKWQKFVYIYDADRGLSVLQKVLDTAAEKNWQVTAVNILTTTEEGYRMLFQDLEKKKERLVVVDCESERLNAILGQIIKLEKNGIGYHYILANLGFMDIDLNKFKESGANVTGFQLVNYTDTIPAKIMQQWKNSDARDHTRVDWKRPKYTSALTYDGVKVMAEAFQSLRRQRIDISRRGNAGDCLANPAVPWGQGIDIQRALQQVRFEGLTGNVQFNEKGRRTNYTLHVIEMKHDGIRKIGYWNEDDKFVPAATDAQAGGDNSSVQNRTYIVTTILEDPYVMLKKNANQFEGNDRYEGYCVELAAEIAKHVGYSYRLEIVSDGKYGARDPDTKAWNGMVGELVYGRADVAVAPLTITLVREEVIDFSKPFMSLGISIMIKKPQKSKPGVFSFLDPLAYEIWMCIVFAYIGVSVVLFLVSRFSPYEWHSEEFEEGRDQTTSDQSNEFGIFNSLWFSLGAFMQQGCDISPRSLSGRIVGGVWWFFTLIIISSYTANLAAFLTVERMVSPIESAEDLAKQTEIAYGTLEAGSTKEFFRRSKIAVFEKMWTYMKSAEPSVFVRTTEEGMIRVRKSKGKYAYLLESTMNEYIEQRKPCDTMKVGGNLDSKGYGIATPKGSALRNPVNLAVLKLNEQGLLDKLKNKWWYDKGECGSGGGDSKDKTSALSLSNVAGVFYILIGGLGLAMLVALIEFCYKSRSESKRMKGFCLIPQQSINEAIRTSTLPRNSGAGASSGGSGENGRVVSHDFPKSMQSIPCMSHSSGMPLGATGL
T5 sequence (Q13002 32-908): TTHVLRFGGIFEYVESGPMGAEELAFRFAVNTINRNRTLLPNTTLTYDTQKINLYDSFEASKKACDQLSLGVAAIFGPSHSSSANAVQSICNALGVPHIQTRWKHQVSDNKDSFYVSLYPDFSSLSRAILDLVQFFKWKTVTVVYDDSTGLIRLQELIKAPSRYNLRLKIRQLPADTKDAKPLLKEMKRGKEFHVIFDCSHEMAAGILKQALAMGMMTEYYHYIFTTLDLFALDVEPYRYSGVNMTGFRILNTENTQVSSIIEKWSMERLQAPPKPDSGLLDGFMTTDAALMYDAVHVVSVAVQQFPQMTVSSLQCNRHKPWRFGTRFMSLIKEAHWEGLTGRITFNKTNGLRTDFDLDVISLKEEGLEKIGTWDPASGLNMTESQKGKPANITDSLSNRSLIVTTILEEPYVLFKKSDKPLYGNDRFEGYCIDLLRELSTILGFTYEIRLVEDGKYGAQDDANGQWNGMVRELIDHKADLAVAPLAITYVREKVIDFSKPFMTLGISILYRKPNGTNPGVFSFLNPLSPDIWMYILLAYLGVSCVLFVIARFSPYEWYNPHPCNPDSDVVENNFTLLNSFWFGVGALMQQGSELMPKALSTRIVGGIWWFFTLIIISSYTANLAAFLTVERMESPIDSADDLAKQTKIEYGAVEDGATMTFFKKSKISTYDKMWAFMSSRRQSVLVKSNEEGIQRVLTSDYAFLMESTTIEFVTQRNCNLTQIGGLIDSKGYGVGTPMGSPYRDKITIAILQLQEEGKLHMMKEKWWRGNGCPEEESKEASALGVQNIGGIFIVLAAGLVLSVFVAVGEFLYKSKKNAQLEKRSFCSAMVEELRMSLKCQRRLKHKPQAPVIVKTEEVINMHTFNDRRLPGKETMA
T2 sequence (P48058 21-902): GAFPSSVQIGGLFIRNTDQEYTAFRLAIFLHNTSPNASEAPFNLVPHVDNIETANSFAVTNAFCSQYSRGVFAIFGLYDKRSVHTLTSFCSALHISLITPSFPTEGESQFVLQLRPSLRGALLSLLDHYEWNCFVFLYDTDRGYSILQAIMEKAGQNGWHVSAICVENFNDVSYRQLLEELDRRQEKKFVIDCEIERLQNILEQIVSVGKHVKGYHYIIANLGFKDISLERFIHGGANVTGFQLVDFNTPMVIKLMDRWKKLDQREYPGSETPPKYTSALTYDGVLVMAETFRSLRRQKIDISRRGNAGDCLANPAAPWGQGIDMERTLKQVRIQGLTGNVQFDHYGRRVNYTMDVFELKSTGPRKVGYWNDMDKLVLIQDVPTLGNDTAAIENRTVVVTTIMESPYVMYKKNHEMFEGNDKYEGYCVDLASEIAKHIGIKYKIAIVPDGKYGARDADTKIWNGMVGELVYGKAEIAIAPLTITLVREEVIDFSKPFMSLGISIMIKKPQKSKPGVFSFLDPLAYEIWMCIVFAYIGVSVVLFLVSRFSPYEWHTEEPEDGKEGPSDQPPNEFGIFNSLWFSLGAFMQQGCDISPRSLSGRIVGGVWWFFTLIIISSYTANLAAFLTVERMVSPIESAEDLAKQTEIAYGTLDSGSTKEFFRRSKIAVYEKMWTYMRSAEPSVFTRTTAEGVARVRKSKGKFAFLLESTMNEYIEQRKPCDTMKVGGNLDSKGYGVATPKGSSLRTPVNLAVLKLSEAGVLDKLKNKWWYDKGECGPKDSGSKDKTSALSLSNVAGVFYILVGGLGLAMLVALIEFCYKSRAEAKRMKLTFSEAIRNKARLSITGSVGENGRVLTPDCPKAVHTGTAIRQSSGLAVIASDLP

Consider `O=C(O)c1ccc(C[C@H]2CC[C@H]3CN[C@H](C(=O)O)C[C@H]3C2)cc1` (relative stereo) [C, 3SR, 4aRS, 6SR, 8aRS-6-(((4-carboxy)phenyl)methyl)-1,2,3-4,4a,5,6,7,8,8a-decahydroisoquinoline-3-carboxylic acid], for which the inhibition at 1000 µM in test [1] (at 1 mM, 3H AMPA) is 21%; in test [2] (at 1 mM, 3H AMPA) it was 23%.

With `O=C(O)[C@@H]1C[C@H]2C[C@@H](COCc3nn[nH]n3)CC[C@H]2CN1` (relative stereo) [Compound A, 3SR, 4aRS, 6SR, 8aRS-6-[(1(2)H-tetrazol-5-yl)methoxy-methyl]decahydroisoquinoline-3-carboxylic acid], the concentration for half-maximal inhibition (IC50) (usually the concentration needed to halve the response being measured) in [3] was above 100 µM; in test [4] it was above 100 µM; in test [5], above 100 µM; in [9], above 100 µM; in [11], above 100 µM; in test [12], 3.9 ± 0.5 µM. The same compound had an IC50 in test [13] of 0.6 µM. Besides, the “Estimated activity (Ki), GluR5” value in [6] is 3.061 µM. The “Estimated activity (Ki), GluR2” value in test [7] is 35.337 µM. The inhibition at 100 µM in [8] is 6%. Also, the “Estimated activity (Ki), GluR3” value in test [10] was 47.793 µM. The “Estimated activity (Ki), GluR1” value in test [1] (displacement of 3H AMPA) was 150.686 µM. In test [14], the “selective GluR5 receptor antagonism” value was “selective GluR5 receptor antagonists”. The “Estimated activity (Ki), GluR4” value in test [2] (displacement of 3H AMPA) is 31.606 µM.

With `O=C(O)[C@@H]1C[C@H]2C[C@@H](COCc3nn[nH]n3)CC[C@H]2CN1` [B, 3S,4aR,6S,8aR-6-((((1H-Tetrazole-5-yl)methyl)oxy)methyl)-1,2,3,4,4a,5,6,7,8,8a-decahydroisoquinoline-3-carboxylic Acid], the “Estimated activity (Ki), GluR5” value in [6] was 5.823 µM. In addition, the writhing entry in test [15] is “dose dependent reduction in writhing”. The “response time (tail flick)” value in test [16] and in [18] was “dose dependent increase in response time” each time. For the same compound, in test [17], the “effectiveness in animal models of pain” value was “effective in animal models of pain”. The “selective GluR5 receptor antagonism” value in test [14] is listed as “selective GluR5 receptor antagonists”; in test [14] (listed as (3S,4aR,6S,8aR)-6-[(1(2)H-tetrazol-5-yl)methoxymethyl]decahydroisoquinoline-3-ca) it was “selective GluR5 antagonist”; in [14] (listed as Example 1), “selective GluR5 antagonist”.

As to `O=C(O)c1ccc(C[C@H]2CC[C@H]3CN[C@H](C(=O)O)C[C@H]3C2)cc1` [D, 3S,4aR,6S,8aR-6-(((4-carboxy)phenyl)methyl)-1,2,3,4,4a,5,6,7,8,8a-decahydroisoquinoline-3-carboxylic acid], the IC50 in [5] is above 100 µM; in [11], above 100 µM; in test [13] it was 0.98 µM.
